One block for each compound: values may come before it.
Key:
HCT-116 [1] = assay: Antiproliferative activity against human HCT-116 cells assessed as cell viability measured after 24 hrs by MTT assay; assay type: functional, cell-based; conditions: HCT-116, 24 h
MDA-MB-231 [2] = assay: Anticancer activity against human MDA-MB-231 cells assessed as cell viability measured after 24 hrs by MTT assay; assay type: functional, cell-based; conditions: MDA-MB-231, 24 h
HeLa [3] = assay: Antiproliferative activity against human HeLa cells assessed as cell viability measured after 24 hrs by MTT assay; assay type: functional, cell-based
MDA-MB-231 [4] = assay: Antimigratory activity against human MDA-MB-231 cells assessed as reduction in cell growth measured after 48 hrs by SRB assay; assay type: functional, cell-based; conditions: MDA-MB-231, 48 h
MDA-MB-231 [5] = assay: Antimigratory activity against human MDA-MB-231 cells assessed as inhibition of cell migration at 10 uM incubated for 24 hrs by scratch wound healing assay relative to control; assay type: functional; parameters: scale not given: the % may be the effect or the level left
MDA-MB-231 [6] = assay: Antimigratory activity against human MDA-MB-231 cells assessed as inhibition of cell migration at 2 uM incubated for 24 hrs by […] relative to control; assay type: functional; parameters: scale not given: the % may be the effect or the level left
HCT-116 [7] = assay: Anticancer activity against human HCT-116 cells assessed as inhibition of cell growth incubated for 72 hrs by MTT assay; assay type: functional, cell-based; conditions: HCT-116, 72 h
A549 = assay: Anticancer activity against human A549 cells assessed as inhibition of cell growth incubated for 24 hrs by MTT assay; assay type: functional, cell-based; conditions: A549, 24 h
HeLa [8] = assay: Anticancer activity against human HeLa cells assessed as inhibition of cell growth incubated for 24 hrs by MTT assay; assay type: functional, cell-based
MCF7 [9] = assay: Anticancer activity against human MCF7 cells assessed as inhibition of cell growth incubated for 24 hrs by MTT assay; assay type: functional, cell-based; conditions: MCF7, 24 h
HepG2 [10] = assay: Anticancer activity against human HepG2 cells assessed as inhibition of cell growth incubated for 48 hrs by crystal violet staining based microplate reader analysis; assay type: functional; conditions: HepG2, 48 h
HepG2 [11] = assay: Anticancer activity against human HepG2 cells assessed as inhibition of cell growth incubated for 48 hrs by ELISA based SRB assay; assay type: functional; conditions: HepG2, 48 h
MCF7 [12] = assay: Anticancer activity against human MCF7 cells assessed as inhibition of cell growth incubated for 48 hrs by ELISA based SRB assay; assay type: functional; conditions: MCF7, 48 h
MCF7 [13] = assay: Potency index, ratio of latrunculin IC50 to test compound IC50 for cytotoxicity against human MCF7 cells; assay type: functional
MCF7 [14] = assay: Anticancer activity against human MCF7 cells assessed as inhibition of cell growth incubated for 72 hrs by MTT assay; assay type: functional, cell-based; conditions: MCF7, 72 h
[15] = Inhibition of actin (unknown origin) polymerization incubated for 20 mins in presence of ATP by ELISA analysis; parameters: species or system Homo sapiens
MDA-MB-231 [16] = assay: Anticancer activity against human MDA-MB-231 cells assessed as inhibition of cell growth incubated for 72 hrs by MTT assay; assay type: functional, cell-based; conditions: MDA-MB-231, 72 h
Homo sapiens = species on record: Homo sapiens; assay: Inhibition of actin (unknown origin) polymerization at 1 uM incubated for 20 mins in presence of ATP by ELISA analysis relative to control
[17] = Inhibition of actin (unknown origin) polymerization at 100 nM incubated for 20 mins in presence of ATP by ELISA analysis relative to control; conditions: Homo sapiens
HCT-116 [18] = assay: Anticancer activity against human HCT-116 cells assessed as inhibition of cell growth measured after 72 hrs by MTT assay; assay type: functional, cell-based; conditions: HCT-116, 72 h
HCT-116 [19] = assay: Anticancer activity against human HCT-116 cells assessed as inhibition of cell growth by MTS assay; assay type: functional, cell-based
P388 = assay: Anticancer activity against mouse p-388 cells assessed as cell growth inhibition incubated for 3 days; assay type: functional, cell-based; conditions: P388, 72 h
[20] = Antiproliferative activity against mouse Pheochromocytoma cells(MTT) assessed as reduction in relative cell viability at 25 uM incubated for 24 hrs by proliferation assay; assay type: functional
[21] = Antiproliferative activity against mouse Pheochromocytoma cells(MPC) assessed as reduction in relative cell viability at 25 uM incubated for 24 hrs by proliferation assay relative to control; assay type: functional
[22] = Antiproliferative activity against mouse Pheochromocytoma cells(MTT) assessed as reduction in relative cell viability at 50 uM incubated for 24 hrs by proliferation assay; assay type: functional
[23] = Antiproliferative activity against mouse Pheochromocytoma cells(MPC) assessed as reduction in relative cell viability at 50 uM incubated for 24 hrs by proliferation assay relative to control; assay type: functional
[24] = Antiproliferative activity against mouse Pheochromocytoma cells(MTT) assessed as reduction in relative cell viability incubated for 24 hrs by proliferation assay; assay type: functional, cell-based

- IC50 (HCT-116 [1]): 5.1 µM
- IC50 (MDA-MB-231 [2]): 0.29 µM
- IC50 (HeLa [3]): 2.1 µM
- IC50 (MDA-MB-231 [4]): 0.31 µM
SMILES: COC1=C(Br)C[C@]2(OC=C1Br)ON=C(C(=O)NCCCOc1c(Br)cc(CCNC=C3C(=O)C=CC3=O)cc1Br)[C@@H]2O

- IC50 (MDA-MB-231 [2]): 0.4 µM
SMILES: CCOC(=O)NCCCCNC(=O)C1=NO[C@]2(C=C(Br)C(OC)=C(Br)[C@@H]2O)C1 [SUBEREAMOLLINE A]
- Activity (MDA-MB-231 [5]): 52%
- Activity (MDA-MB-231 [6]): 38%

- IC50 (A549): 30 µM
- IC50 (HeLa [8]): 4.1 µM
- IC50 (MCF7 [9]): 19.4 µM
SMILES: C#C/C=C\CCCCCCCCC#CCCC(=O)NCCc1ccccc1

- IC50 (HepG2 [11]): 25.4 µM
- IC50 (MCF7 [12]): 28.3 µM
SMILES: CCCCCCCCCCCCCCCCCC[C@@H](O)C(=O)N[C@@H](CO)[C@H](O)[C@H](O)CCCCCCCCCCCCCCCC

Second part, the compound before the results:

SMILES: CC(C)[C@@H](C)/C=C/[C@@H](C)[C@H]1CC[C@H]2C3=C(CC[C@]12C)[C@@]1(C)CC[C@H](O)CC1=CC3=O
- IC50 (HCT-116 [7]): 40 µM

SMILES: CC1=CCC2C(CC[C@@]2(C)O)C(C)(C)[C@@H]1CC[C@H]1[C@@](C)(O)CCC2OC(C)(C)C(=O)CC[C@@]21C (stereo not given in full)
- IC50 (HepG2 [10]): 0.0069 µM

SMILES: CC(C)[C@]1(O)CC[C@@]2(C)C[C@](O)([C@H]3CC[C@@H]4[C@]3(C)CC[C@H]3OC(C)(C)[C@H](O)C(=O)[C@@H](O)[C@]43C)CC[C@@H]21
- IC50 (HepG2 [10]): 0.023 µM

SMILES: C/C1=C/C(=O)O[C@@H]2C[C@@H](CC[C@H](C)/C=C\C=C\CC1)O[C@@](OCCc1ccccc1)([C@@H]1CSC(=O)N1)C2
- Ratio IC50 (MCF7 [13]): 4.8
- IC50 (MCF7 [14]): 0.1 µM
- IC50 [15]: 0.184 µM
- IC50 (MDA-MB-231 [16]): 2.71 µM
- inhibition (Homo sapiens): 94%
- inhibition [17]: 31%

SMILES: CC(/C=C/c1ccccc1)=C\[C@H](O)[C@@H]1CCC(=O)N[C@@H](CO)C(=O)NC2C[n+]3cc(n([C@@H]4O[C@H](CO)[C@H](O)[C@H](O)[C@H]4O)c3)CC(NC(=O)CCC[C@@H](C(=O)[O-])NC(=O)[C@@H](O)CNC(=O)[C@H](Cc3ccc(Br)cc3)NC(=O)[C@H]([C@@H](O)C(N)=O)NC(=O)[C@H](CC(N)=O)NC2=O)C(=O)N[C@@H]([C@@H](C)O)C(=O)N[C@@H](CO)C(=O)N[C@@H](Cc2ccccc2)C(=O)N1 (stereo not given in full)
- IC50 (HCT-116 [18]): 6 µM

SMILES: CO[C@@H]1C[C@H](C)O[C@@H](C(O)C[C@H](C)[C@H](O)[C@H](C)[C@H]2OC(=O)/C=C/C(C)=C/C[C@H](O)C[C@H]3C=CC[C@@H](C[C@H](OC)[C@@H](C)[C@@H](O)C[C@@H](O)[C@H](C)[C@@H]([C@@H](C)[C@@H](O)[C@@H](C)CC[C@H]4C[C@H](OC)C[C@H](C)O4)OC(=O)/C=C/C(C)=C/C[C@H](O)C[C@@H]4C=CC[C@@H](C[C@H](OC)[C@@H](C)[C@@H](O)C[C@@H](O)[C@@H]2C)O4)O3)C1 (stereo not given in full)
- IC50 (HCT-116 [19]): 0.0056 µM

SMILES: CC[C@H]1CCCC[C@@]2(C[C@@H]3CC[C@@H]4[C@H](C(=O)OCCCCCCCCCCCCCCCC(=O)N(CCCN)CCCCN)[C@]5(CCC[C@@H](C)O5)NC(=[N+]34)N2)O1
- IC50 (P388): 0.1 mg/L

SMILES: COC1=C(Br)[C@H](O)[C@@]2(C=C1Br)CC(C(=O)NCCCCNC(=O)C1=NO[C@]3(C=C(Br)C(OC)=C(Br)[C@@H]3O)C1)=NO2 [AEROTHIONIN]
- Activity [20]: 82.8%
- IC50 (HeLa [3]): 29 µM
- Activity [21]: 83.7%
- Activity [22]: 48.3%
- Activity [23]: 55.1%
- EC50 [24]: 48.1 µM

Reference: ChEMBL document CHEMBL5149985, “Discovery of cytotoxic natural products from Red Sea sponges: Structure and synthesis” (Eur J Med Chem, 2021)
